Experimental data as given in patent US20220348572A1, “BRIDGED HETEROCYCLYL-SUBSTITUTED PYRIMIDINE COMPOUND, PREPARATION METHOD THEREFOR, AND PHARMACEUTICAL USE THEREOF” (The National Institutes of Pharmaceutical R&D Co., Ltd., priority 2019, published 2022).

target: T1, JAK1 kinase (Homo sapiens, UniProt P23458); assay: In vitro inhibitory activity on JAK1 kinase (ADP-Glo Kinase Assay); format: biochemical; settings: JAK1 kinase 4 nM, 1 mM ATP
T1 construct: purchased Invitrogen PV4744
Procedure: Test Example 1: Determination of In Vitro Inhibitory Activity of the Compounds of the Present Invention on JAK1 Kinase Experimental materials: JAK1 kinase (Invitrogen, PV4744), ATP (Promega, V915B), ADP-Glo Kinase Assay (Promega, V9101), IRS1 (Signalchem, 140-58-1000). Sample preparation: The compounds of the present invention and the control product were dissolved in DMSO solvent respectively to formulate into 10 mM initial liquid. The maximum concentration of the compound was 10 μM, 3-fold dilution, 10 concentration gradients, and duplicate wells for each concentration gradient. Experimental processs: 0.1 μL of the compound to be tested was transferred into a 384 reaction plate (PE, 6007290) via Echo and centrifuged at 1000 rpm/min for 1 min. 5 μL JAK1 kinase (final concentration of 4 nM) was transferred into the 384 reaction plate, which was then centrifuged at 1000 rpm/min for 1 min, and incubated at 25° C. for 15 min. 5 μL substrate mixture (1 mM ATP, IRS1 0.05 mg/ml, kinase buffer solution) was transferred into the 384 reaction plate, which was then centrifuged at 1000 rpm/min for 1 min, and incubated at 25° C. for 60 min. 10 μL ADP-Glo was transferred into the 384 reaction plate, which was then centrifuged at 1000 rpm/min for 1 min, and incubated at 25° C. for 40 min. 20 μL test solution was transferred into the 384 reaction plate, which was then centrifuged at 1000 rpm/min for 1 min and incubated at 25° C. for 40 min. RLU (Relative luminescence unit) signal was read by using an Envision multifunctional plate reader. The signal intensity was used to characterize the degree of the kinase activity. […] IC50 value of 0-100 nM is shown as A, IC50 value of 100-300 nM is shown as B, IC50 value of 300-1000 nM is shown as C, and IC50 value which is greater than 1000 nM is shown as D. NT means not tested.

T1 sequence (P23458 866-1154 limits assumed): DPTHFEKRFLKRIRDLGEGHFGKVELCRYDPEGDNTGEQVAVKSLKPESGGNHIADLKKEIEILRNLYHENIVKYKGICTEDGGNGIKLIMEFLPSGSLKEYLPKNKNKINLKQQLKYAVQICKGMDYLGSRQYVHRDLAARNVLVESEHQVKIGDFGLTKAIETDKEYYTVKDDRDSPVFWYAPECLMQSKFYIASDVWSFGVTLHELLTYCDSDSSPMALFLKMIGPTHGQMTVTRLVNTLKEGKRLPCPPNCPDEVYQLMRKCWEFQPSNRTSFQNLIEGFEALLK

IC50	Structure (SMILES)
< 100 nM	Cn1cc(Nc2ncc(Cl)c(C3=C[C@@H]4CC[C@H](C3)N4C(=O)[C@@H]3CC3(F)F)n2)cn1 [Compound 23-a, ((1S,5R)-3-(5-chloro-2-((1-methyl-1H-pyrazol-4-yl)amino)pyrimidin-4-yl)-8-azabicyclo[3.2.1]oct-2-en-8-yl)((S)-2,2-difluorocyclopropyl)methanone]
100 to 300 nM	CC(C)(O)Cn1cc(Nc2nccc(C3=CC4CCC(C3)N4C(=O)[C@@H]3CC3(F)F)n2)cn1 (stereo partly drawn) [Compound 41, ((S)-2,2-Difluorocyclopropyl)(3-(2-((1-(2-hydroxy-2-methylpropyl)-1H-pyrazol-4-yl)amino)pyrimidin-4-yl)-8-azabicyclo[3.2.1]oct-2-en-8-yl)methanone]
> 1000 nM	NC(=O)C1(n2cc(Nc3nccc(C4=CC5CCC(C4)N5C(=O)[C@@H]4CC4(F)F)n3)cn2)CC1 (stereo partly drawn) [Compound 39, 1-(4-((4-(8-((S)-2,2-Difluorocyclopropane-1-carbonyl)-8-azabicyclo[3.2.1]oct-2-en-3-yl)pyrimidin-2-yl)amino)-1H-pyrazol-1-yl)cyclopropane-1-carboxamide]
> 1000 nM	Cn1cc(Nc2nccc(C3=CC4CCC(C3)N4C3(CC#N)CN(C(=O)[C@@H]4CC4(F)F)C3)n2)cn1 (stereo partly drawn) [Compound 85, 2-(1-((S)-2,2-difluorocyclopropane-1-carbonyl)-3-(3-(2-((1-methyl-1H-pyrazol-4-yl)amino)pyrimidin-4-yl)-8-azabicyclo[3.2.1]oct-2-en-8-yl)azetidin-3-yl)acetonitrile]
> 1000 nM	Cc1cnc(Nc2cn(C)nc2C)nc1C1=C[C@@H]2CC[C@H](C1)N2C(=O)NCC(F)(F)F [Compound 26-a, (1S,5R)-3-(2-((1,3-dimethyl-1H-pyrazol-4-yl)amino)-5-methylpyrimidin-4-yl)-N-(2,2,2-trifluoroethyl)-8-azabicyclo[3.2.1]oct-2-ene-8-carboxamide]
< 100 nM	Cc1cnc(Nc2cnn(C)c2)nc1C1=C[C@H]2CC[C@@H](C1)N2C(=O)[C@@H]1CC1(F)F [Compound 22-b, ((S)-2,2-difluorocyclopropyl)((1R,5S)-3-(5-methyl-2-((1-methyl-1H-pyrazol-4-yl)amino)pyrimidin-4-yl)-8-azabicyclo[3.2.1]oct-2-en-8-yl)methanone]
100 to 300 nM	Cn1cc(Nc2nccc(C3=CC4CCC(C3)N4C(=O)NC3CC3(F)F)n2)cn1 (stereo not shown) [Compound 14, N-(2,2-difluorocyclopropyl)-3-(2-((1-methyl-1H-pyrazol-4-yl)amino)pyrimidin-4-yl)-8-azabicyclo[3.2.1]oct-2-ene-8-carboxamide]
< 100 nM	Cn1cc(Nc2nccc(C3=CC4CCC(C3)N4C(=O)C3CCC3C#N)n2)cn1 (stereo not shown) [Compound 77, 2-(3-(2-((1-methyl-1H-pyrazol-4-yl)amino)pyrimidin-4-yl)-8-azabicyclo[3.2.1]oct-2-ene-8-formyl)cyclobutane-1-carbonitrile]
300 to 1000 nM	Cn1cc(Nc2nccc(C3=CC4CCC(C3)N4C(=O)NCCC(F)(F)F)n2)cn1 (stereo not shown) [Compound 57, 3-(2-((1-methyl-1H-pyrazol-4-yl)amino)pyrimidin-4-yl)-N-(3,3,3-trifluoropropyl)-8-azabicyclo[3.2.1]oct-2-ene-8-carboxamide]
> 1000 nM	Cn1cc(Nc2nccc(C3=CC4CCC(C3)N4C(=O)C34CC(C#N)(C3)C4)n2)cn1 (stereo not shown) [Compound 73, 3-(3-(2-((1-methyl-1H-pyrazol-4-yl)amino)pyrimidin-4-yl)-8-azabicyclo[3.2.1]oct-2-ene-8-formyl)bicyclo[1.1.1]pentane-1-carbonitrile]
> 1000 nM	Cn1cc(Nc2nccc(C3=CC4CCC(C3)N4C(=O)N3CC(C#N)C3)n2)cn1 (stereo not shown) [Compound 10, 1-(3-(2-((1-methyl-1H-pyrazol-4-yl)amino)pyrimidin-4-yl)-8-azabicyclo[3.2.1]oct-2-ene-8-carbonyl)azetidine-3-nitrile]
300 to 1000 nM	Cn1cc(Nc2nccc(C3=CC4CCC(C3)N4C(=O)C(=O)NCC(F)(F)F)n2)cn1 (stereo not shown) [Compound 82, 2-(3-(2-((1-methyl-1H-pyrazol-4-yl)amino)pyrimidin-4-yl)-8-azabicyclo[3.2.1]oct-2-en-8-yl)-2-oxo-N-(2,2,2-trifluoroethyl)acetamide]
< 100 nM	C[C@H](NC(=O)N1C2C=C(c3ccnc(Nc4cnn(C)c4)n3)CC1CC2)C(F)(F)F (stereo partly drawn) [Compound 55, 3-(2-((1-Methyl-1H-pyrazol-4-yl)amino)pyrimidin-4-yl)-N-((S)-1,1,1-trifluoropropane-2-yl)-8-azabicyclo[3.2.1]oct-2-ene-8-carboxamide]
> 1000 nM	Cn1cc(Nc2nccc(C3=CC4CCC(C3)N4C(=O)C3CC(CO)C3)n2)cn1 (stereo not shown) [Compound 81, (3-(hydroxymethyl)cyclobutyl)(3-(2-((1-methyl-1H-pyrazol-4-yl)amino)pyrimidin-4-yl)-8-azabicyclo[3.2.1]oct-2-en-8-yl)methanone]
< 100 nM	Cc1cnc(Nc2cnn(CC(C)(C)O)c2)nc1C1=C[C@@H]2CC[C@H](C1)N2C(=O)NCC(F)(F)F (single isomer, unassigned) [Compound 29-a]
100 to 300 nM	Cn1cc(Nc2nccc(C3=CC4CCC(C3)N4C(=O)CC(F)F)n2)cn1 (stereo not shown) [Compound 66, 3,3-difluoro-1-(3-(2-((1-methyl-1H-pyrazol-4-yl)amino)pyrimidin-4-yl)-8-azabicyclo[3.2.1]oct-2-en-8-yl)-1-acetone]
> 1000 nM	Cn1cc(Nc2nccc(C3=CC4CCC(C3)N4C(=O)C3(C)CC3(F)F)n2)cn1 (stereo not shown) [Compound 48, (2,2-difluoro-1-methylcyclopropyl)(3-(2-((1-methyl-1H-pyrazol-4-yl)amino)pyrimidin-4-yl)-8-azabicyclo[3.2.1]oct-2-en-8-yl)methanone]
< 100 nM	O=C(NCC(F)(F)F)N1C2C=C(c3ccnc(Nc4cnn(C5CC5)c4)n3)CC1CC2 (stereo not shown) [Compound 43, 3-(2-((1-cyclopropyl-1H-pyrazol-4-yl)amino)pyrimidin-4-yl)-N-(2,2,2-trifluoroethyl)-8-azabicyclo[3.2.1]oct-2-ene-8-carboxamide]
300 to 1000 nM	Cn1cc(Nc2nccc(C3=CC4CCC(C3)N4C(=O)NC3COC3)n2)cn1 (stereo not shown) [Compound 15, 3-(2-((1-methyl-1H-pyrazol-4-yl)amino)pyrimidin-4-yl)-N-(oxetan-3-yl)-8-azabicyclo[3.2.1]oct-2-ene-8-carboxamide]
< 100 nM	Cn1cc(Nc2nccc(C3=CC4CCC(C3)N4C(=O)C3CC3C(F)(F)F)n2)cn1 (stereo not shown) [Compound 49, (3-(2-((1-methyl-1H-pyrazol-4-yl)amino)pyrimidin-4-yl)-8-azabicyclo[3.2.1]oct-2-en-8-yl)(2-(trifluoromethyl)cyclopropyl)methanone]
100 to 300 nM	Cc1cnc(Nc2cnn(C)c2Cl)nc1C1=CC2CCC(C1)N2C(=O)NCC(F)(F)F (stereo not shown) [Compound 32, 3-(2-((5-chloro-1-methyl-1H-pyrazol-4-yl)amino)-5-methylpyrimidin-4-yl)-N-(2,2,2-trifluoroethyl)-8-azabicyclo[3.2.1]oct-2-ene-8-carboxamide]
> 1000 nM	Cn1cc(Nc2nccc(C3=CC4CCC(C3)N4C(=O)C(=O)NCC#N)n2)cn1 (stereo not shown) [Compound 83, N-(cyanomethyl)-2-(3-(2-((1-methyl-1H-pyrazol-4-yl)amino)pyrimidin-4-yl)-8-azabicyclo[3.2.1]oct-2-en-8-yl)-2-oxoacetamide]
> 1000 nM	Cn1cc(Nc2nccc(C3=CC4CCC(C3)N4C(=O)C3(C(F)(F)F)CC3)n2)cn1 (stereo not shown) [Compound 52, (3-(2-((1-methyl-1H-pyrazol-4-yl)amino)pyrimidin-4-yl)-8-azabicyclo[3.2.1]oct-2-en-8-yl)(1-(trifluoromethyl)cyclopropyl)methanone]
< 100 nM	Cn1cc(Nc2ncc(F)c(C3=C[C@@H]4CC[C@H](C3)N4C(=O)NCC(F)(F)F)n2)cn1 (single isomer, unassigned) [Compound 12-a]
< 100 nM	Cc1cnc(Nc2cnn(C3COC3)c2)nc1C1=CC2CCC(C1)N2C(=O)NCC(F)(F)F (stereo not shown) [Compound 30, 3-(5-Methyl-2-((1-(oxetan-3-yl)-1H-pyrazol-4-yl)amino)pyrimidin-4-yl)-N-(2,2,2-trifluoroethyl)-8-azabicyclo[3.2.1]oct-2-ene-8-carboxamide]
300 to 1000 nM	Cn1cc(Nc2nccc(C3=CC4CCC(C3)N4C(=O)CCC(F)(F)F)n2)cn1 (stereo not shown) [Compound 5, 4,4,4-trifluoro-1-(3-(2-((1-methyl-1H-pyrazol-4-yl)amino)pyrimidin-4-yl)-8-azabicyclo[3.2.1]oct-2-en-8-yl)butan-1-one]
300 to 1000 nM	O=C([C@@H]1CC1(F)F)N1C2C=C(c3ccnc(Nc4cnn(C5COC5)c4)n3)CC1CC2 (stereo partly drawn) [Compound 37, ((S)-2,2-difluorocyclopropyl)(3-(2-((1-(oxetan-3-yl)-1H-pyrazol-4-yl)amino)pyrimidin-4-yl)-8-azabicyclo[3.2.1]oct-2-en-8-yl)methanone]
> 1000 nM	Cn1cc(Nc2nccc(C3=CC4CCC(C3)N4C(=O)C3(C)COC3)n2)cn1 (stereo not shown) [Compound 13, (3-(2-((1-methyl-1H-pyrazol-4-yl)amino)pyrimidin-4-yl)-8-azabicyclo[3.2.1]oct-2-en-8-yl)(3-methyloxetan-3-yl)methanone]
